These cell lines were tested with CC1=CC(=CC=C1)NC2=NC(=CS2)C3=CC=NC=C3 + C[C@@H](Oc1cc(-c2cnn(C3CCNCC3)c2)cnc1N)c1c(Cl)ccc(F)c1Cl [Crizotinib] (partner 1 µM) (assay: relative viability (nuclei count vs DMSO), 5 days (fraction); higher = more cells survive). Details: first compound 8 µM.
Outline: (§1)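 Each reported value is a median over duplicate plates. It expresses relative viability: treated-well nuclei count divided by vehicle-well nuclei count. Lung cancer cell lines in 1536-well plates were dosed by pin tool a day after seeding, alone with one drug or with a fixed anchor-drug dose plus five library-drug doses (not always all listed) in √10 steps, and nuclei were counted after 5 days.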

Row | Cell Line | relative viability
1 | NCI-H1944 | 0.948
2 | PC-3 [JPC-3] | 0.799
3 | EKVX | 0.497
4 | LC-2-ad | 0.396

The cell lines below were run with CC1=CC(=CC=C1)NC2=NC(=CS2)C3=CC=NC=C3 + C[C@]1(O)C[C@@H](c2nc(-c3ccc4ccc(-c5ccccc5)nc4c3)c3c(N)nccn32)C1 [Linsitinib] (partner 1 µM) in the same assay as above. Details: first compound 0.08 µM.
Outline: as §1

Row | Cell Line | relative viability
5 | LXF-289 | 0.971
6 | BEN | 0.881
7 | HARA | 0.919
8 | HCC-78 | 0.398
9 | NCI-H2023 | 0.63
10 | A-427 | 1.16
11 | NCI-H460 | 0.736
12 | NCI-H727 | 0.283
13 | NCI-H1755 | 0.949
14 | NCI-H520 | 0.91
15 | NCI-H2405 | 0.777
16 | SW 1573 | 0.845
17 | 201T | 1.03
18 | NCI-H1975 | 0.825
19 | HCC-827 | 0.914
20 | NCI-H2347 | 0.751
21 | NCI-H1355 | 0.713

Row | Cell Line | relative viability
22 | NCI-H650 | 0.659
23 | CAL-12T | 0.766
24 | NCI-H1666 | 0.781
25 | EPLC-272H | 1.08
26 | NCI-H23 | 0.491
27 | NCI-H1915 | 1.1
28 | NCI-H1437 | 0.945
29 | NCI-H322M | 0.832
30 | NCI-H1563 | 1.11
31 | NCI-H1792 | 0.322
32 | NCI-H2085 | 0.901
33 | HCC-15 | 0.872
34 | NCI-H1944 | 1.17
35 | PC-3 [JPC-3] | 0.888
36 | EKVX | 0.914
37 | LC-2-ad | 0.764

Same assay, conditions: first compound 0.253 µM

Row | Cell Line | relative viability
38 | LXF-289 | 0.933
39 | BEN | 0.925
40 | HARA | 0.877
41 | HCC-78 | 0.506
42 | NCI-H2023 | 0.666
43 | A-427 | 1.03
44 | NCI-H460 | 0.95
45 | NCI-H727 | 0.283
46 | NCI-H1755 | 0.886
47 | NCI-H520 | 0.935
48 | NCI-H2405 | 0.927
49 | SW 1573 | 0.65
50 | 201T | 1.05
51 | NCI-H1975 | 0.868
52 | HCC-827 | 0.874
53 | NCI-H2347 | 0.802

Row | Cell Line | relative viability
54 | NCI-H1355 | 0.584
55 | NCI-H650 | 0.739
56 | CAL-12T | 0.801
57 | NCI-H1666 | 0.614
58 | NCI-H23 | 0.607
59 | NCI-H1915 | 1.08
60 | NCI-H1437 | 1.01
61 | NCI-H322M | 0.937
62 | NCI-H1563 | 1.12
63 | NCI-H1792 | 0.33
64 | NCI-H2085 | 0.952
65 | HCC-15 | 0.859
66 | NCI-H1944 | 1.15
67 | PC-3 [JPC-3] | 0.878
68 | EKVX | 0.778
69 | LC-2-ad | 0.821

Same assay, conditions: first compound 0.8 µM

Row | Cell Line | relative viability
70 | LXF-289 | 0.955
71 | BEN | 0.89
72 | HARA | 0.735
73 | HCC-78 | 0.542
74 | LCLC-97TM1 | 0.212
75 | NCI-H2023 | 0.618
76 | A-427 | 1.09
77 | NCI-H460 | 0.605
78 | NCI-H727 | 0.268
79 | NCI-H1755 | 0.857
80 | NCI-H520 | 0.975
81 | NCI-H2405 | 0.799
82 | SW 1573 | 0.705
83 | 201T | 1
84 | NCI-H1975 | 0.702
85 | HCC-827 | 0.969
86 | NCI-H2347 | 0.688

Row | Cell Line | relative viability
87 | NCI-H1355 | 0.579
88 | NCI-H650 | 1.13
89 | CAL-12T | 0.747
90 | NCI-H1666 | 0.432
91 | EPLC-272H | 1.05
92 | NCI-H23 | 0.639
93 | NCI-H1915 | 1.05
94 | NCI-H1437 | 0.913
95 | NCI-H322M | 0.791
96 | NCI-H1563 | 1.19
97 | NCI-H1792 | 0.389
98 | NCI-H2085 | 0.911
99 | HCC-15 | 0.828
100 | NCI-H1944 | 1.26
101 | PC-3 [JPC-3] | 0.772
102 | EKVX | 0.882
103 | LC-2-ad | 0.684

Same assay, conditions: first compound 2.53 µM

Row | Cell Line | relative viability
104 | LXF-289 | 0.986
105 | BEN | 0.777
106 | HARA | 0.712
107 | HCC-78 | 0.423
108 | LCLC-97TM1 | 0.207
109 | NCI-H2023 | 0.678
110 | NCI-H460 | 0.862
111 | NCI-H727 | 0.199
112 | NCI-H1755 | 0.911
113 | NCI-H520 | 0.986
114 | NCI-H2405 | 0.999
115 | SW 1573 | 0.901
116 | 201T | 0.817
117 | NCI-H1975 | 0.754
118 | HCC-827 | 0.906
119 | NCI-H2347 | 0.948

Row | Cell Line | relative viability
120 | NCI-H1355 | 0.673
121 | CAL-12T | 0.847
122 | NCI-H1666 | 0.474
123 | NCI-H23 | 0.584
124 | NCI-H1915 | 1.09
125 | NCI-H1437 | 1
126 | NCI-H322M | 1.12
127 | NCI-H1563 | 1.29
128 | NCI-H1792 | 0.377
129 | NCI-H2085 | 0.838
130 | HCC-15 | 0.791
131 | NCI-H1944 | 1.19
132 | PC-3 [JPC-3] | 0.903
133 | EKVX | 0.882
134 | LC-2-ad | 0.788

Same assay, conditions: first compound 8 µM

Row | Cell Line | relative viability
135 | LXF-289 | 0.85
136 | BEN | 0.813
137 | HARA | 0.789
138 | HCC-78 | 0.63
139 | LCLC-97TM1 | 0.168
140 | NCI-H2023 | 0.507
141 | A-427 | 1.12
142 | NCI-H460 | 0.525
143 | NCI-H727 | 0.343
144 | NCI-H1755 | 0.677
145 | NCI-H520 | 1
146 | NCI-H2405 | 0.926
147 | SW 1573 | 0.779
148 | 201T | 0.852
149 | NCI-H1975 | 0.738
150 | HCC-827 | 0.907
151 | NCI-H2347 | 0.93
152 | NCI-H1355 | 0.568
153 | NCI-H650 | 1.06
154 | CAL-12T | 0.847
155 | NCI-H1666 | 0.41
156 | EPLC-272H | 1.19
157 | NCI-H23 | 0.583
158 | NCI-H1915 | 0.989
159 | NCI-H1437 | 0.759
160 | NCI-H322M | 0.771
161 | NCI-H1563 | 1.18
162 | NCI-H1792 | 0.398

Source: the supplement of paper PMC10307832
